Results on four compounds are retold here after patent publication EP0472573B1, “HERBICIDE RESISTANT MAIZE” (ZENECA LIMITED, priority 1989, dated 1990).

In test [1] the test system is ALS enzyme extracted from Mutant 9 (heterozygous). Kind of test: ALS enzyme assay, heterozygous Mutant 9. It counts as biochemical, Zea mays. To be noted: for resistance group, Enzyme Assay: Mutant 9, groups Strong, Intermediate, Weak, Zero; for Fold Increase: fold increase in resistance vs wild type, heterozygous Mutant 9, 30 min; for IC50: ALS of heterozygous Mutant 9, read-out: ID50% (the source's name). The method, then: (§1) Seeds of generation M₁BC₁ M₁BC₂ of the nine mutants were sprayed pre-emergence with the herbicide imazethapyr (PURSUIT) (Trade Mark) at a rate of 250 g/ha and grown in a growth chamber (16 hour day, 27°C; 8 hour night, 17°C). Plants were harvested after 11 days.
(§2) Four grams of leaf material were harvested from just above the first leaf axis and ground in a mortar and pestle in 20ml of a solution containing 40mM Tricine (Trade Mark), 10mM EDTA, 5mM pyruvate, 80 »M flavin adenine dinucleotide (FAD), 1mM dithiothreitol (DTT), pH 8, plus 0.8g Polyclar AT. The homogenate was pressed through four layers of muslin and centrifuged at 30,000g for 20 minutes.
(§3) The supernatant was brought to 65% saturation with ammonium sulphate, left to precipitate for 30 minutes and then centrifuged at 30.000g for 20 minutes. The pellet was resuspended in 2.5ml of 40mM Tricine, 10mM EDTA, 5mM pyruvate, 80»M FAD, 25% (v/v) glycerol, 1mM DTT, pH 8, and desalted into 3.5ml of 40mM Tricine, 10mM EDTA, 25% (v/v) glycerol, 1mM DTT, pH 8.
(§4) One hundred microlitres of the enzyme extract was used for each assay. Final reagent concentrations were: 120mM Tricine, 50mM pyruvate, 10mM MgCl₂, […], 93»M thiamine pyrophosphate (TPP), pH 8, in the presence or absence of a herbicide of interest, in a volume of 750 »l. Incubations were carried out at 37°C for 30 minutes. Reactions were stopped with 250»l of 1.84M sulphuric acid, and decarboxylation of the acetolactate carried out at 37°C for 75 minutes, or at 60°C for 30 minutes. Assay blanks had sulphuric acid added prior to the enzyme extract. To the samples and blanks 650»l of α-naphthol in 2.73M NaOH/0.16%(w/v) creatine were added followed by incubation at 37°C for 30 minutes. After centrifugation at 30,000g the optical density of the supernatant was read at 540nm.
(§5) The assay procedure described was carried out on ALS enzyme extracted from each of the nine mutants for the following herbicides: imazethapyr (PURSUIT) imazapyr (ARSENAL) imazaquin (SCEPTER) chlorsulfuron (GLEAN) chlorimuron (CLASSIC) […] (HARMONY) The enzyme activity graphs are given as Figures 3 to 8. In addition, homozygous lines of mutants 1 and 2 which were selected from generation M₁BC₁S₂, were also tested against the same group of herbicides and against representatives of the triazolopyrimidines and phenoxypyrimidines. The chemical structures of these herbicides are shown in Figure 2 of the accompanying drawings.
(§6) From the enzyme assay data it is possible to derive, as a measure of the degree of inhibition the factor ID50% for each mutant and for each herbicide. This factor is indicative of the herbicide concentration which gives 50% inhibition of the ALS activity in comparison with the wild-type control. It is also possible to derive the fold increase in resistance.

The test system of another test is Mutant 5 plants. Kind of test: Cross-resistance testing (glasshouse dose response), Mutant 5. To be noted: pre-emergence spray, assessed after four weeks growth. The test is classed as in vivo, Zea mays. From the text:
(§7) The seeds used in this screen were populations of mixed tolerant and sensitive seed, segregating 1:1, derived from each of the heterogygous, tolerant mutants crossed with homozygous, sensitive UE95. All of the tolerant progeny are heterozygous for tolerance. Each of the mutants identified above were used except mutant 4. The controls were seed of self-pollinated UE95 which was pollinated in the same year as the tolerant lines.
(§8) One litre of compost was placed in each seed tray of dimensions 19cm x 11cm x 5cm deep and firmed down flat. Two furrows 1 cm deep were drawn in the surface of the compost in each tray and six seeds were sown in each furrow (total twelve seeds per tray). Some trays were sown with 24 seeds, in which case three furrows were made and 8 seeds sown per furrow.
(§9) In each test each tray contained either the seed of one mutant or of the UE95 control for each herbicide application rate and for the untreated control.
(§10) Five different types of ALS-inhibitor herbicides were tested on the mutants plus imazethapyr (PURSUIT) as a comparison. Four rates of each were applied; approximately 0.1x, 0.5x, 1x and 4x the estimated field rates for each herbicide. The rates are the same for mutant 3 to 10 but higher rates for chlorimuron (CLASSIC) and lower rates for chlorsulfuron (GLEAN) were applied to mutants 1 and 2.
(§11) The rates of application used in the screening tests were as follows: chlorimuron (CLASSIC) 4,20,40,160 g/Ha (mutants 1 and 2); and, 8,40,80,320 g/Ha (mutants 3 to 10); chlorsulfuron (GLEAN) 5,25,50,200 g/Ha (mutants 1 and 2); and, 1,5,10,40 g/Ha (mutants 3 to 10); imazaquin (SCEPTER) 30,150,300,1200 g/Ha; triazolopyrimidine 5,25,50,200 g/Ha; phenoxypyrimidine 10,50,100,400 g/Ha; and, imazethapyr (PURSUIT) 30,150,300,1200 g/Ha The triazolopyrimidine and phenoxypyrimidine were formulated in an adjuvant wetting agent known as JF5969 and diluted with water to make a final concentration of 10% JF5969. The remaining compounds were diluted with water only.
(§12) The spray jet and parameters were as decribed above under "SCREENING". After spraying, the seeds were covered with 0.5 litre of compost and firmed down flat (2.5cm covering) and grown under the conditions described under "SCREENING" above.
(§13) Visual assessments were made of the plants after four weeks growth. Each plant was scored on a scale of zero to 5 and the height measured from soil surface to the tallest leaf tip. The scoring scale was as follows: 0 - 0 to 10% damage (little or no herbicidal effect) 1 - 11 to 25% damage 2 - 26 to 50% damage 3 - 51 to […] 4 - 81 to 95% damage 5 - 96 to 100% damage (complete death of the plant) In carrying out these assessments, plants which were obviously of the sensitive phenotype were ignored (approximately 50% of the plants). […]

Test [2] deals with ALS enzyme extracted from Mutant 8 (heterozygous). Kind of test: ALS enzyme assay, heterozygous Mutant 8. It counts as biochemical, Zea mays. The following applies: for IC50: ALS of heterozygous Mutant 8, read-out: ID50% (the source's name); for resistance group, Enzyme Assay: Mutant 8, groups Strong, Intermediate, Weak, Zero; for Fold Increase: fold increase in resistance vs wild type, heterozygous Mutant 8, 30 min. The method, then:
as §1, §2, §3, §4, §5, §6

For another test, the system named is Mutant 9 plants. The experiment in a line: Cross-resistance testing (glasshouse dose response), Mutant 9. It counts as in vivo, Zea mays. To be noted: pre-emergence spray, assessed after four weeks growth.
Source text: as §7, §8, §9, §10, §11, §12, §13

Test [3] addresses ALS enzyme extracted from Mutant 6 (heterozygous). The experiment in a line: ALS enzyme assay, heterozygous Mutant 6. The test is classed as biochemical, Zea mays. To be noted: for IC50: ALS of heterozygous Mutant 6, read-out: ID50% (the source's name); for resistance group, Enzyme Assay: Mutant 6, groups Strong, Intermediate, Weak, Zero; for Fold Increase: fold increase in resistance vs wild type, heterozygous Mutant 6, 30 min. The procedure:
as §1, §2, §3, §4, §5, §6

In test [4] the target is ALS extracted from leaves of MUTANT 1 (homozygous). The experiment in a line: ALS enzyme assay, homozygous Mutant 1. The test is classed as biochemical, Zea mays. The following applies: for IC50: ALS of homozygous Mutant 1, read-out: ID50% Mutant; for Fold Increase: fold increase in resistance vs wild type, homozygous Mutant 1, 30 min. The procedure:
as §2, §3, §4, §5, §6

The next test deals with Mutant 6 plants. The experiment in a line: Cross-resistance testing (glasshouse dose response), Mutant 6. The test is classed as in vivo, Zea mays. To be noted: pre-emergence spray, assessed after four weeks growth.
Source text: as §7, §8, §9, §10, §11, §12, §13

Consider `COc1cc(Cl)nc(NC(=O)NS(=O)(=O)c2ccccc2C(=O)O)n1` [Chlorimuron, chlorimuron], for which the “resistance group, Enzyme Assay” value in test [1] is “Weak”; in test [2], “Zero”; in test [3] it was “Weak”. In addition, the “Fold Increase” value in test [1] is reported as 3; in test [2], 3; in test [3], 4; in test [4], 2.7. In addition, the “resistance group, Dose Response” value in the test with Mutant 5 plants, in the test with Mutant 9 plants and with Mutant 6 plants was “Zero” each time. Also, the IC50 was 0.01 µM in test [2], 0.015 µM in test [3] and 0.01 µM in test [4].

Take `COc1nc(C)nc(NC(=O)NS(=O)(=O)c2ccccc2Cl)n1` [Chlorsulfuron, chlorsulfuron]: the IC50 in test [1] is 0.05 µM; in test [2] it was 0.075 µM; in test [3], 0.065 µM; in test [4], 0.06 µM. In addition, the “resistance group, Enzyme Assay” value in test [1], in test [2] and in test [3] was “Weak” each time. Further, the “Fold Increase” value turned out to be 3 in test [1], 4 in test [2], 4 in test [3] and 3.2 in test [4]. Also, the “resistance group, Dose Response” value was “Weak” in the test on Mutant 5 plants; “Weak and Zero” in the test with Mutant 9 plants; “Zero” with Mutant 6 plants.

With `CC(C)C1(C)N=C(c2nc3ccccc3cc2C(=O)O)NC1=O` (stereo not shown) [Imazaquin, imazaquin], the IC50 in test [1] amounted to 50 µM; in test [2], 150 µM; in test [3], 1.5 µM; in test [4], 175 µM. The entries for the “resistance group, Enzyme Assay” value in test [1], in test [2] and in test [3] were “Strong”, “Strong” and “Weak”, respectively. For the same compound, the “Fold Increase” value in test [1] was 83; in test [2], 250; in test [3] it was 2; in test [4], 292. The results for the “resistance group, Dose Response” value in the test with Mutant 5 plants, in the test with Mutant 9 plants and with Mutant 6 plants were “Intermediate”, “Strong” and “Weak”, respectively.

For `CCc1cnc(C2=NC(=O)C(C)(C(C)C)N2)c(C(=O)O)c1` (stereo not shown) [Imazethapyr, 5-ethyl-2-(5-iso-propyl-5-methyl-4-oxo-2-imidazolin-2-yl) nicotinic acid], the IC50 was 425 µM in test [1], greater than 1000 µM in test [2], 60 µM in test [3] and 750 µM in test [4]. Also, the figures for the “resistance group, Enzyme Assay” value in test [1], in test [2] and in test [3] were “Strong”, “Strong” and “Weak”, respectively. The “Fold Increase” value in test [1] is 283; in test [2], greater than 660; in test [3] it was 40; in test [4], 500. Further, the “resistance group, Dose Response” value is “Strong” in the test on Mutant 5 plants, “Strong” in the test on Mutant 9 plants and “Intermediate” in the test with Mutant 6 plants.
